Measured values from PubChem BioAssay (NCI).
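Five concentrations, 48 hours, 96-well plates. GI50: concentration for 50% inhibition of growth. TGI: total growth inhibition.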 Where a SMILES comes first, the peptide text is derived from it.

How the values were obtained:
Experiment in all cases: NCI anticancer screen, dose series, 48 h
U251 CNS = tested on: U251 CNS
OVCAR-3 ovarian = tested on: OVCAR-3 ovarian
NCI-H522 lung = tested on: NCI-H522 lung
MDA-N = tested on: MDA-N
LOX IMVI melanoma = tested on: LOX IMVI melanoma
NCI-H460 lung = tested on: NCI-H460 lung
SNB-75 CNS = tested on: SNB-75 CNS
SNB-19 CNS = tested on: SNB-19 CNS
HCC-2998 colon = tested on: HCC-2998 colon
DLD-1 colon = tested on: DLD-1 colon
XF 498 CNS = tested on: XF 498 CNS
KM20L2 colon = tested on: KM20L2 colon
SNB-78 CNS = tested on: SNB-78 CNS

| SMILES | TGI (U251 CNS) [µM] | TGI (OVCAR-3 ovarian) [µM] | TGI (NCI-H522 lung) [µM] | TGI (MDA-N) [µM] | TGI (LOX IMVI melanoma) [µM] | TGI (NCI-H460 lung) [µM] | TGI (SNB-75 CNS) [µM] | TGI (SNB-19 CNS) [µM] | TGI (HCC-2998 colon) [µM] | GI50 (LOX IMVI melanoma) [µM] | TGI (DLD-1 colon) [µM] | TGI (XF 498 CNS) [µM] | TGI (KM20L2 colon) [µM] | TGI (SNB-78 CNS) [µM] | GI50 (U251 CNS) [µM] | GI50 (OVCAR-3 ovarian) [µM] | GI50 (HCC-2998 colon) [µM] | GI50 (NCI-H460 lung) [µM] | GI50 (SNB-75 CNS) [µM] | GI50 (SNB-19 CNS) [µM] |
| --- | --- | --- | --- | --- | --- | --- | --- | --- | --- | --- | --- | --- | --- | --- | --- | --- | --- | --- | --- | --- |
| COC(CN(C=O)[C@@H](c1ccc(Cl)cc1)c1cc2ccccc2o1)OC | 31.8 | 26.8 | 29.2 | 31.6 | 34.5 | 33.3 | 42.7 | 41.2 |  |  |  |  |  |  |  |  |  |  |  |  |
| C1=CC(=[N+]2N=C(c3ccccc3)CC2c2ccccc2)C=CC1=C1SC(c2ccccc2)(c2ccccc2)c2ccccc21 (configuration not stated) | > 100 | > 100 |  | > 100 |  | > 100 |  | > 100 | > 100 |  |  |  |  |  |  |  |  |  |  |  |
| O=[N+]([O-])c1ccc2c(c1)nc(Cc1ccc(Cl)cc1)n2C[C@@H]1CCCN2CCCCC12 (some centres not stated) | 45.5 | 30.8 | 27.4 | 25.9 | 28.7 | 31.2 | 28.3 | 50.5 | 18.8 |  |  |  |  |  |  |  |  |  |  |  |
| O=C1/C(=C\c2ccc(F)cc2)CCOc2c1ccc1ccccc21 | > 100 | 27.9 | > 100 |  | 38.4 | 97.9 | > 66.1 | > 100 | 17.7 | 13 |  |  |  |  |  |  |  |  |  |  |
| COc1cc2c(cc1OCCCCCCCCN1C(=O)c3cccc4cccc(c34)C1=O)N=C[C@@H]1CCCN1C2=O | 25.3 | 55.9 | 39.9 |  | 25.5 | 72 | 10.3 | > 100 | 30.7 |  |  |  |  |  |  |  |  |  |  |  |
| COC(=S)OC1CC(n2cnc3c(N)ncnc32)OC1CO[Si](C)(C)C(C)(C)C (configuration not stated) | 28.1 | 31 |  | 46.7 | > 100 | 48.1 |  | > 100 |  |  |  |  |  |  |  |  |  |  |  |  |
| CCCSc1ccc2[nH]c(N3C(=O)/C(=C/c4cc(OC)c(OC)c(OC)c4)N=C3c3ccccc3)cc2c1 | > 37.5 | 26.5 | 26.8 | 12.3 | > 37.5 | > 37.5 | 33.5 | > 37.5 | > 32.6 |  |  |  |  |  |  |  |  |  |  |  |
| CSCCC(NC(=O)OCc1ccccc1)P(=O)(O)c1ccccc1 (configuration not stated) | > 100 | > 100 | > 100 | > 100 | > 100 | > 100 | > 100 | > 100 | > 100 |  |  |  |  |  |  |  |  |  |  |  |
| CC(=O)c1ccc2c(c1)N(CCCN1CCN(CCO)CC1)c1ccccc1C2 | 29.8 | 29.5 | 31.2 | 26.7 | 29.6 | 31 | 30.5 | 33.8 |  |  |  |  |  |  |  |  |  |  |  |  |
| Cc1ccccc1NC(=O)CC(=O)N1N=C(N2c3ccccc3Sc3ccccc32)CC1c1ccccc1 (configuration not stated) | > 100 | > 100 |  |  | > 100 | > 100 | > 100 | > 100 | > 100 |  | > 100 | > 100 | > 100 | > 100 |  |  |  |  |  |  |
| O=C1CC2(CCC(O)(c3cccs3)C(C(=O)c3cccs3)C2)C(=O)c2ccccc2N1 (configuration not stated) | > 100 | > 100 |  | > 100 | > 100 | 46.6 | > 100 |  | > 100 |  |  |  |  |  |  |  |  |  |  |  |
| CC(=O)Oc1ccc(CO)cc1OC(C)=O | > 100 | > 100 | > 100 |  | > 100 | > 100 | > 100 | > 100 |  |  | > 100 | > 100 | > 100 | > 100 |  |  |  |  |  |  |
| O=c1[nH]c(Nc2ccc(Cl)cc2)nc2nc[nH]c12 | > 100 | > 100 | > 100 |  | > 100 | > 100 | > 100 | > 100 | > 100 |  |  |  |  |  |  |  |  |  |  |  |
| COc1ccc(C(=O)N(C(=O)N2CCN(c3ccccc3)CC2)S(=O)(=O)c2ccccc2)cc1 | 35.3 | > 100 | 33.3 | 65.4 | 38 | > 100 | 63.8 | 74.9 | > 100 |  |  |  |  |  |  |  |  |  |  |  |
| CC(C)(C)[Si](C)(C)OCC1OC(n2cnc3c(N)ncnc32)CC1OS(C)(=O)=O (configuration not stated) | > 100 | > 100 |  | > 100 | > 100 | > 100 |  | > 100 |  |  |  |  |  |  |  |  |  |  |  |  |
| O=S(=O)(O)c1cc(N=[N+]([O-])c2cc(S(=O)(=O)O)c3ccccc3c2)cc2ccccc12 | > 100 | 28.2 | 65.9 | 41.7 | 60.6 | > 100 | 30 | > 100 | > 100 |  |  |  |  |  |  |  |  |  |  |  |
| CCC(C)C(NC(=O)C1CCCN1C(=O)C(CC(C)C)NC(=O)C(CC(C)C)NC(=O)C(N)CC(C)C)C(=O)NC(C(=O)NCC(=O)NC(CC(N)=O)C(=O)NC(CC(C)C)C(=O)NC(CC(C)C)C(=O)NC(CC(C)C)C(N)=O)C(C)C (configuration not stated) (H-LLLPIVGNLLL-NH2; configuration not given here) | > 50 | > 50 | > 50 | > 50 | > 50 |  |  | > 50 |  |  |  |  |  |  |  |  |  |  |  |  |
| Cc1cnoc1NS(=O)(=O)c1ccc(Nc2nnc(/C=C/c3c(O)ccc4ccccc34)c(=O)n2N)cc1 |  | 60.1 |  | 82.2 | 53.9 |  | 77 | > 100 |  |  |  |  |  |  |  |  |  |  |  |  |
| Cc1nc2ncn3c(c-2c1Cc1ccccc1)NC=C(O)N3 | > 100 | > 100 | > 100 | > 100 |  | > 100 | 67.8 | > 100 | > 100 |  |  |  |  |  |  |  |  |  |  |  |
| COC(=O)C[C@H](COCc1ccccc1)NC(=O)C[C@H](COCc1ccccc1)NC(=O)OC(C)(C)C | 67.7 | 86.9 | 54 |  | > 100 |  | 61.2 | 44.2 |  |  |  |  |  |  |  |  |  |  |  |  |
| CCCCCOC(=O)c1cc2cc(CCl)ccc2oc1=O | 34.9 | 19.5 | 1.3 | 20.9 | 34.5 | 34.9 | 31.2 | > 76.8 | 28.1 |  |  |  |  |  |  |  |  |  |  |  |
| Nc1ccc(-c2nc3cc(F)ccc3s2)cc1CO | 41.5 | > 100 | > 100 | > 100 | > 100 | > 100 | 36.8 | > 90.6 | 6.17 |  |  |  |  |  |  |  |  |  |  |  |
| O=C1c2ccccc2C(C2c3ccccc3C(=O)c3cc(Br)ccc32)c2ccc(Br)cc21 (configuration not stated) | > 100 | > 100 | > 100 | > 100 | > 100 |  | > 100 | > 100 | > 100 |  |  |  |  |  |  |  |  |  |  |  |
| O=C(O)C(O)C(O)C(O)C(=O)CO (configuration not stated) | > 100 | > 100 | > 100 | > 100 | > 100 | > 100 | > 100 | > 100 | > 100 |  |  |  |  |  |  |  |  |  |  |  |
| COC1CC(CC2CCC(C)C(C(C)C(=O)O)O2)OC2(OC(C)(C3CCC(C)(C4OC(C5OC(O)(CO)C(C)CC5C)CC4C)O3)CC2C)C1C (configuration not stated) | 11.9 | 14 | 0.591 | 4.99 | 9.81 | 22 | 8.7 | 5.67 | 11.5 |  | 14.1 | 1.01 | 11 | 68.3 |  |  |  |  |  |  |
| NC(=S)N1N=C(c2ccccc2O)CC1c1ccccc1 (configuration not stated) | 43.8 | 31.2 | 18.8 | 10.5 | 46.2 | 35.6 | 52.9 | > 100 | 27.3 |  |  |  |  |  |  |  |  |  |  |  |
| CCCN1C(=O)CSC1=Nc1ccc2cc3ccc(N=C4SCC(=O)N4CCC)cc3nc2c1 | > 100 | 67.6 |  |  | > 100 | > 100 | > 100 | > 100 | > 100 | > 100 |  |  |  |  | 48.2 | 22 | > 100 | 66.3 | 22.3 | 95.4 |
| N#Cc1c(N)nc2c(c1-c1ccc(Br)cc1)CSc1ccccc1-2 | > 100 | > 100 |  | > 100 | > 100 | > 100 | > 100 | > 100 |  |  |  |  |  |  |  |  |  |  |  |  |
| O=c1c2ccccc2[nH]c(=S)n1-c1ccc(N=Nc2cccc3cc(O)ccc23)cc1 | > 100 | > 100 | > 100 | > 100 | > 100 | > 100 | > 100 | > 100 | > 100 |  |  |  |  |  |  |  |  |  |  |  |
| CC1CN=C(NS(=O)(=O)c2cc(C(=O)Nc3ccc(F)cc3)c(Cl)cc2S)NN1 (configuration not stated) | > 100 | > 100 | 94.2 |  | > 100 | > 100 |  | > 100 | > 100 |  |  |  |  |  |  |  |  |  |  |  |
